# Key:
# [1] = test system: O3-induced pulmonary inflammation; experiment: O3-induced lung injury/pulmonary inflammation model, endotracheal administration, BALF analysis; type: in vivo, mice
# Procedure: Because of the clinical relevance of environmental ozone exposure, and the experience of our team, with the murine model of O3-induced LI, pulmonary inflammation, and/or AHR, we have evaluated the anti-inflammatory efficacy of our PC-NSAID formulations using this robust model system. In these studies, all mice were pre-dosed (via endotracheal administration) with vehicle, indomethacin (at a dose range from 2 mg/kg), ibuprofen (5 mg/kg) or the equivalent (NSAID) doses of the PC-NSAID compositions, 1 h before and 1.5 hours after being exposed to either filtered room air or O3 (2 ppm) for 3 h and then 6 h or 24 h following the cessation of exposure airway pulmonary injury and inflammation were assessed by euthanizing the animals and collecting bronchoalveolar lavage fluid (BALF) using standard techniques. The O3 exposure protocol were chosen to allow for comparison with data of other investigators studying acute O3-induced pulmonary inflammation/AHR in mice.
# In these studies, all mice were pre-dosed with vehicle (PBS), NSAID (indomethacin or ibuprofen) (at a dose of 2 mg NSAID/kg), or the equivalent (NSAID) dose of the corresponding PC-NSAID composition using an endo-tracheal delivery method refined that we refined (25 μL/rat) 1 h before and 90 minutes after being exposed to either filtered room air or O3 (2 ppm) for 3 h. The PC-Indomethacin composition was prepared dissolving indomethacin and purified PC (Phospholipon 90G from Lipoid) in a polar solvent (such as acetone), followed by vacuum removal of the solvent to form a purified PC-NSAID oil composition. This purified PC-NSAID oil composition is then added to an amount of phosphate buffered saline (PBS) followed by 30 minutes of sonication to provide a uniform composition at the appropriate dose for intra-tracheal administration. In some experiments, we prepared the PC-Indomethacin composition using Lipoid S-100 (a highly purified >98% soy PC product, as recommended by the manufacturer) instead of Phospholipon 90G, as well as comparing the effects of the purified soy PC products (S-100 and 90G) alone. […] Twenty-four hours (24 h) following the cessation of O3 exposure, pulmonary injury and inflammation were assessed by euthanizing the animals and collecting bronchoalveolar lavage (BALE) fluid using standard techniques. The collected BALF samples were centrifuged (with the cell pellet analyzed for white cells) and the supernatant analyzed for protein and prostaglandin E2, all markers of pulmonary inflammation.
# The concentration of total BALF protein has been determined spectrophotometrically according to the Bradford protein assay procedure (Bio-Rad Laboratories, Inc.; Hercules, Calif.) while the levels of IL-6, MIP-2, PGE2 in the BALF are determined using a commercially available ELISA kit (Immunology Consultants Laboratories, Inc., Newberg, Oreg.), and MPO activity (by enzymatic kit provided CytoStore) in accordance to the manufacturer's instructions. Pulmonary inflammation has been determined by assessing the BALF cell differentials on Cytospin cytocentrifuge preparations. Hemoglobin has been measured by the benzidine assay.
# We used a modification the protocol employed in pilot studies. In these earlier experiments, mice were pre-dosed with phosphate buffered saline (PBS) vehicle, the test NSAID (indomethacin or ibuprofen) (at a dose of 2 mg or 5 mg NSAID/kg), PC (4 mg/k or 10 mg/kg), respectively, or the equivalent (NSAID) dose of the PC-NSAID complex using an endotracheal delivery method refined in our lab (25 μL/rat) 1 h before and 90 minutes after being exposed to either filtered room air or O3 (2 ppm) for 3 h.
# [2] = Storage stability of PC-NSAID oil and reconstituted dispersions; type: physicochemical; settings: dispersed in sodium bicarbonate buffer, stored at 4° C., FIG. 8
# Procedure: The proprietary method used to prepare the purified PC-NSAIDs takes advantage of the fact that pre-dissolving indomethacin (or ibuprofen) in acetone beforehand markedly increases the solubility of PC in this polar solvent (normally PC has a very limited solubility in acetone). Thereby the NSAID and purified soy PC (Lipoid S-100) (1:1 PC to NSAID molar ratio, which correspond to 2:1 PC to NSAID weight ratio) are dissolved in acetone, in this order and incubated at 40° C. until the solution clarifies. This solution is then placed in a rotor-evaporator for at least 12 hours to remove the volatile solvent. In the case of disaturated PC, such as dipalmitoyl-PC (DPPC) (which is the major phospholipid in pulmonary surfactant) we have learned that it is important to have 2-4 times more NSAID than PC (on a molar basis) to drive the solubility of the DPPC into the polar solvent. […] With the advice of the soy lecithin manufacturer (Lipoid Inc., Heidelberg, Germany) we are transitioning to their more purified soy lecithin product (Lipoid S-100) which already is approved for parenteral administration. […] FIGS. 10-13 indicate that these PC-NSAID formulations can readily be aerosolized into particles having a diameter between 2-6 μm for deep lung deposition.
# [3] = test system: O3-induced pulmonary inflammation; experiment: O3-induced pulmonary inflammation model, parenteral administration, BALF analysis; type: in vivo, mice; settings: 10 mg/kg, BALF 24 h post exposure, FIG. 2, pilot study
# Procedure: Using the O3-induced pulmonary inflammation model, we have evaluated and compared the anti-inflammatory efficacy of PC-Indomethacin vs indomethacin administered parenterally at a dose of 10 mg/kg vs vehicle control and evaluated the BALF 24 h post exposure. The white cell counts and protein concentrations of the BALF of the test groups are depicted in FIG. 2.
# [4] = ozone-exposed mice (2 ppm, 3 h), endotracheal dosing 1 h before and 90 min after, BALF 24 h post-exposure, *=p<0.05 vs air
smiles,measurement,setting,value
"COc1ccc2c(c1)c(CC(=O)O)c(C)n2C(=O)c1ccc(Cl)cc1 [Indomethacin, indomethacin]","white cell count in BALF, effect in words","[1]; O3-exposed mice, endotracheal, BALF 24 h post, FIG. 3 (indomethacin), FIG. 9A (ibuprofen, PC is DPPC)",increased white cell count relative to vehicle
same,"protein concentration of BALF, effect in words","[1]; O3-exposed mice, endotracheal, BALF 24 h post, FIG. 4 (indomethacin), FIG. 9B (ibuprofen, PC is DPPC)",did not cause a similar effect
same,"PGE2 concentration in BALF, effect in words","[1]; O3-exposed mice, endotracheal, FIG. 6 (indomethacin), FIG. 9D (ibuprofen, PC is DPPC)",statistically significant effect to markedly inhibit
same,BALF Cell Number,[1]; [4],163 ± 53*
same,BALF MPO,[1]; [4],2.12 ± 0.43* ng/mL
same,BALF PGE2,[1]; [4],274 ± 141 pg/mL
same,BALF Protein,[1]; [4],796 ± 135* μg/mL
same,stability in sodium bicarbonate buffer,[2],degrades over time
same,white cell counts and protein concentrations of the BALF (index of O3-induced pulmonary inflammation),[3],appeared to inhibit

# — patent US20130281405A1, “USE OF PC-NSAIDS TO TREAT AND/OR PREVENT PULMONARY INFLAMMATION” (priority 2012, published 2013)
